The test system of test [1] is U87MG pLVX-IDH2 R140Q-neo cells. As to the kind of experiment: U87MG pLVX-IDH2 R140Q-neo cell based assay, 2-HG in media by LC-MS at 48 hours. Conditions: Homo sapiens, U-87 MG. The method, boiled down:
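2-HG secreted into the medium was measured by LC-MS after 48 h of compound treatment (0.2% DMSO final) of U87MG pLVX-IDH2 R140Q-neo cells in DMEM/10% FBS. The same wells were assayed at 72 h by CellTiter-Glo luminescence for effects on growth.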

Test [2] has as its target T1, IDH2 R172K (Homo sapiens, UniProt P48735, R172K).
T1 sequence (P48735 40-452 R172K): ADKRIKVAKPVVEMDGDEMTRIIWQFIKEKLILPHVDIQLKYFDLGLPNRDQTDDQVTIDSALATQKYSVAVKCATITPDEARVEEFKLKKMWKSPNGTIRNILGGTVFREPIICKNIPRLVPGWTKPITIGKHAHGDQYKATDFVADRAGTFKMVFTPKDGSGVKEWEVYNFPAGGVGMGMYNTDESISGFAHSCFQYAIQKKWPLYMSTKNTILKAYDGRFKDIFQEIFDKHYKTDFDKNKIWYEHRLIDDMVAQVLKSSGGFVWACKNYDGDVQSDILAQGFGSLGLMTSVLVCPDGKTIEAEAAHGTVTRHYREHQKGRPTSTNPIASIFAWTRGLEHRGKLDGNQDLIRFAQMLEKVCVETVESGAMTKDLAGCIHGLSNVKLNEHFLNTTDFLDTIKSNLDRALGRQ
Description: IDH2 R172K enzymatic assay (NADPH cofactor depletion, diaphorase/resazurin readout). As to conditions: read-out: Enz R172K. It is filed as biochemical. The method, boiled down: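 Residual NADPH is read out as resorufin fluorescence after quenching with 36 μg/ml diaphorase and 60 μM resazurin in stop mix. The stop follows a 1 h room-temperature reaction started by a substrate mix of NADPH (50 μM) and α-KG (6.3 mM), with compound preincubated with enzyme for 1 h beforehand.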

In test [3] the target is T2, IDH2 R140Q (Homo sapiens, UniProt P48735, R140Q).
T2 sequence (P48735 40-452 R140Q): T1 sequence (P48735 40-452 R172K) with R101Q, K133R
As to the kind of experiment: IDH2 R140Q enzymatic assay (cofactor depletion, similar format). It is filed as biochemical.

Positions count from the first letter of the chain named. Where two headings read alike, the source gives them in different places.

With `CC(C)Nc1nc(Nc2ccccc2)nc(-c2cc(C(F)(F)F)ccn2)n1` [Compound 270, N^2-isopropyl-N^4-phenyl-6-(4-(trifluoromethyl)pyridin-2-yl)-1,3,5-triazine-2,4-diamine], the IC50 in test [1] is 100 to 1000 nM; in test [2], 100 to 1000 nM; in test [3] (read-out: Enz R140Q) it was less than 100 nM.

For the compound `CC(C)Nc1nc(Nc2ccnc(C(F)(F)F)c2)nc(-c2cccc(C(F)(F)F)n2)n1` [Compound 335, N^2-isopropyl-6-(6-(trifluoromethyl)pyridin-2-yl)-N^4-(2-(trifluoromethyl)pyridin-4-yl)-1,3,5-triazine-2,4-diamine], the IC50 in test [1] was less than 100 nM; in test [2] it was less than 100 nM; in test [3] (read-out: Enz R140Q), 100 to 1000 nM.

On to `FC(F)(F)c1cc(Nc2nc(NC3COC3)nc(-c3ccccn3)n2)ccn1` [Compound 336, N^2-(oxetan-3-yl)-6-(pyridin-2-yl)-N^4-(2-(trifluoromethyl)pyridin-4-yl)-1,3,5-triazine-2,4-diamine], for which the figures for the IC50 in test [1], in test [2] and in test [3] (read-out: Enz R140Q) were less than 100 nM, 100 to 1000 nM and 100 to 1000 nM, respectively.

As to `FC(F)(F)c1cccc(-c2nc(Nc3cnoc3)nc(NC3COC3)n2)n1` [Compound 337, N^2-(isoxazol-4-yl)-N^4-(oxetan-3-yl)-6-(6-(trifluoromethyl)pyridin-2-yl)-1,3,5-triazine-2,4-diamine], the values for the IC50 in test [1], in test [2] and in test [3] (read-out: Enz R140Q) were 100 to 1000 nM, 1000 to 10000 nM and 100 to 1000 nM, respectively.

For `CC(C)Nc1nc(Nc2cc(F)cc(F)c2)nc(-c2cccc(Cl)n2)n1` [Compound 340, 6-(6-chloropyridin-2-yl)-N^2-(3,5-difluorophenyl)-N^4-isopropyl-1,3,5-triazine-2,4-diamine], the IC50 in test [1], in test [2] and in test [3] (read-out: Enz R140Q) was less than 100 nM in each case.

On to `CC(C)Nc1nc(Nc2cccc(S(=O)(=O)NC3CC3)c2)nc(-c2ccccc2)n1` [Compound 341, N-cyclopropyl-3-(4-(isopropylamino)-6-phenyl-1,3,5-triazin-2-ylamino)benzenesulfonamide], for which the IC50 in test [1] is less than 100 nM; in test [2] it was 100 to 1000 nM; in test [3] (read-out: Enz R140Q) it was less than 100 nM.

`CC(C)Nc1nc(Nc2cccc(S(=O)(=O)NC(C)(C)C)c2)nc(-c2ccccc2)n1` [Compound 342, N-tert-butyl-3-(4-(isopropylamino)-6-phenyl-1,3,5-triazin-2-ylamino)benzenesulfonamide]: the IC50 in test [1] is 1000 to 10000 nM; in test [2] it was 1000 to 10000 nM; in test [3] (read-out: Enz R140Q), 100 to 1000 nM.

For `CC(C)Nc1nc(Nc2ccc(F)nc2)nc(-c2cccc(Cl)n2)n1` [Compound 344, 6-(6-chloropyridin-2-yl)-N^2-(6-fluoropyridin-3-yl)-N^4-isopropyl-1,3,5-triazine-2,4-diamine], the figures for the IC50 in test [1], in test [2] and in test [3] (read-out: Enz R140Q) were less than 100 nM, less than 100 nM and 100 to 1000 nM, respectively.

On to `Fc1ccc(Nc2nc(NC3CCC3)nc(-c3ccccn3)n2)cn1` [Compound 345, N^2-cyclobutyl-N^4-(6-fluoropyridin-3-yl)-6-(pyridin-2-yl)-1,3,5-triazine-2,4-diamine], for which the IC50 in test [1], in test [2] and in test [3] (read-out: Enz R140Q) was 100 to 1000 nM throughout.

As to `Cc1cc(Nc2nc(NC(=O)C(C)(C)C)nc(-c3ccccc3)n2)ccn1` [Compound 350], the IC50 lay in the range of 100 to 1000 nM in test [1], 1000 to 10000 nM in test [2] and 100 to 1000 nM in test [3] (read-out: Enz R140Q).

Regarding `CC(C)Nc1nc(Nc2cccc(S(C)(=O)=O)c2)nc(-c2cccc(C(F)(F)F)n2)n1` [Compound 358, N^2-isopropyl-N^4-(3-(methylsulfonyl)phenyl)-6-(6-(trifluoromethyl)pyridin-2-yl)-1,3,5-triazine-2,4-diamine], the IC50 in test [1] was less than 100 nM; in test [2] it was 100 to 1000 nM; in test [3] (read-out: Enz R140Q), 100 to 1000 nM.

Turning to `CC(C)Nc1nc(Nc2cncc(C(F)(F)F)c2)nc(-c2ccccc2F)n1` [Compound 372, 6-(2-fluorophenyl)-N^2-isopropyl-N^4-(5-(trifluoromethyl)pyridin-3-yl)-1,3,5-triazine-2,4-diamine], the IC50 in test [1], in test [2] and in test [3] (read-out: Enz R140Q) was less than 100 nM throughout.

Take `CC(C)Nc1nc(Nc2cncc(F)c2)nc(-c2ccccc2F)n1` [Compound 374, 6-(2-fluorophenyl)-N^2-(5-fluoropyridin-3-yl)-N^4-isopropyl-1,3,5-triazine-2,4-diamine]: the IC50 in test [1], in test [2] and in test [3] (read-out: Enz R140Q) was less than 100 nM throughout.

With `CC(C)Nc1nc(Nc2cncc(C(F)(F)F)c2)nc(-c2cccc(C(F)(F)F)n2)n1` [Compound 386, N^2-isopropyl-6-(6-(trifluoromethyl)pyridin-2-yl)-N^4-(5-(trifluoromethyl)pyridin-3-yl)-1,3,5-triazine-2,4-diamine], the IC50 in test [1] is less than 100 nM; in test [2], less than 100 nM; in test [3] (read-out: Enz R140Q) it was 100 to 1000 nM.

With `CC(C)(O)CNc1nc(Nc2ccnc(C(F)(F)F)c2)nc(-c2cccc(C(F)(F)F)n2)n1` [Compound 409, 2-methyl-1-(4-(6-(trifluoromethyl)pyridin-2-yl)-6-(2-(trifluoromethyl)pyridin-4-ylamino)-1,3,5-triazin-2-ylamino)propan-2-ol], the IC50 in test [1] is less than 100 nM; in test [2], 100 to 1000 nM; in test [3] (Enz R140Q) it was 100 to 1000 nM.

Take `CC(C)(C)OC(=O)Nc1nc(Nc2ccccc2)nc(-c2ccccc2)n1` [Compound 416, Tert-butyl 4-phenyl-6-(phenylamino)-1,3,5-triazin-2-ylcarbamate]: the figures for the IC50 in test [1], in test [2] and in test [3] (read-out: Enz R140Q) were less than 100 nM, 100 to 1000 nM and less than 100 nM, respectively.

On to `CC(C)Nc1nc(Nc2ccc(S(C)(=O)=O)cc2)nc(-c2ccccc2)n1` [Compound 452, N2-isopropyl-N4-(4-(methylsulfonyl)phenyl)-6-phenyl-1,3,5-triazine-2,4-diamine], for which the IC50 in test [1] is 1000 to 10000 nM; in test [2] it was greater than 10000 nM; in test [3] (read-out: Enz R140Q) it was 100 to 1000 nM.

Take `CC(C)Nc1nc(Nc2cccc(S(C)(=O)=O)c2)nc(-c2nc(F)ccc2F)n1` [Compound 454]: the IC50 in test [1] lay within 100 to 1000 nM; in test [2], 1000 to 10000 nM; in test [3] (read-out: Enz R140Q), 100 to 1000 nM.

In the case of `CC(C)Nc1nc(Nc2cc(F)cc(F)c2)nc(-c2nccc(C(F)(F)F)n2)n1` [Compound 455, N-(3,5-Difluoro-phenyl)-N′-isopropyl-6-(4-trifluoromethyl-pyrimidin-2-yl)-[1,3,5]triazine-2,4-diamine], the IC50 in test [1] was less than 100 nM; in test [2] it was less than 100 nM; in test [3] (read-out: Enz R140Q) it was 100 to 1000 nM.

On to `CC(C)Nc1nc(Nc2cncc(F)c2)nc(-c2ncccc2F)n1` [Compound 456, N-(5-Fluoro-pyridin-3-yl)-6-(3-fluoro-pyridin-2-yl)-N′-isopropyl-[1,3,5]triazine-2,4-diamine], for which the IC50 in test [1] was less than 100 nM; in test [2], 100 to 1000 nM; in test [3] (read-out: Enz R140Q), 100 to 1000 nM.

For the compound `CC(C)Nc1nc(Nc2cc(F)cc(F)c2)nc(-c2nccc(N)n2)n1` [Compound 458, 6-(4-Amino-pyrimidin-2-yl)-N-(3,5-difluoro-phenyl)-N′-isopropyl-[1,3,5]triazine-2,4-diamine], the IC50 was less than 100 nM in test [1], 100 to 1000 nM in test [2] and 100 to 1000 nM in test [3] (read-out: Enz R140Q).

Regarding `CC(C)Nc1nc(Nc2cc(F)cc(F)c2)nc(-c2ncccc2F)n1` [Compound 459, N-(3,5-Difluoro-phenyl)-6-(3-fluoro-pyridin-2-yl)-N′-isopropyl-[1,3,5]triazine-2,4-diamine], the IC50 in test [1], in test [2] and in test [3] (read-out: Enz R140Q) was less than 100 nM in each case.

`CC(C)Nc1nc(Nc2cc(F)cc(F)c2)nc(-c2nc(F)ccc2F)n1` [Compound 460, N-(3,5-Difluoro-phenyl)-6-(3,6-difluoro-pyridin-2-yl)-N′-isopropyl-[1,3,5]triazine-2,4-diamine]: the IC50 in test [1], in test [2] and in test [3] (read-out: Enz R140Q) was less than 100 nM each time.

As for `COc1ccc(F)c(-c2nc(Nc3cc(F)cc(F)c3)nc(NC(C)C)n2)n1` [Compound 461, N-(3,5-Difluoro-phenyl)-6-(3-fluoro-6-methoxy-pyridin-2-yl)-N′-isopropyl-[1,3,5]triazine-2,4-diamine], the IC50 in test [1], in test [2] and in test [3] (read-out: Enz R140Q) was less than 100 nM throughout.
